This note sets out measurements from patent US20240400555A1 (Initial Therapeutics, Inc., priority 2023, published 2024).

In the assay the test system is MV-4-11 cells. As to the kind of experiment: Cell Viability Assay in MV-4-11 Cells. The following applies: Homo sapiens, MV4-11, 72 h, MV-4-11 cells, 72 h, Cell-Titer Glo; read-out: IC50. Type of assay: cell-based. The method in brief: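 MV-4-11 cells at 7,000/well in IMDM with 10% FBS, exposed to compound for 72 h. Viability by CellTiter-Glo luminescence, normalized to DMSO as 100%, fitted with a four-parameter curve.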
For orientation: IC50 means the concentration needed to halve the response being measured. For the compound `CC(=O)N1CCN(c2ccnc(Nc3ccc(C(=O)N(c4nccc5cccc(C)c45)[C@@H]4CCCNC4)c(F)c3)n2)CC1` [Example 933, (R)-4-((4-(4-acetylpiperazin-1-yl)pyrimidin-2-yl)amino)-2-fluoro-N-(8-methylisoquinolin-1-yl)-N-(piperidin-3-yl)benzamide], the IC50 is 180 nM.
Turning to `Cc1cccc2ccnc(N(C(=O)c3ccc(Nc4nccc(CN5CCN(C)CC5)n4)cc3F)[C@@H]3CCCNC3)c12` [Example 934, (R)-2-fluoro-N-(8-methylisoquinolin-1-yl)-4-((4-((4-methylpiperazin-1-yl)methyl)pyrimidin-2-yl)amino)-N-(piperidin-3-yl)benzamide], the IC50 came out at 120 nM.
The result for `Cc1cccc2ccnc(N(C(=O)c3ccc(Nc4nccc(N5CCS(=O)(=O)CC5)n4)cc3F)[C@@H]3CCCNC3)c12` [Example 935, (R)-4-((4-(1,1-dioxidothiomorpholino)pyrimidin-2-yl)amino)-2-fluoro-N-(8-methylisoquinolin-1-yl)-N-(piperidin-3-yl)benzamide] reads 63 nM.
Take `Cc1cccc2ccnc(N(C(=O)c3ccc(Nc4nccc(N5CCC(C)(O)CC5)n4)cc3F)[C@@H]3CCCNC3)c12` [Example 936, (R)-2-fluoro-4-(4-(4-hydroxy-4-methylpiperidin-1-yl)pyrimidin-2-ylamino)-N-(8-methylisoquinolin-1-yl)-N-(piperidin-3-yl)benzamide]: the 50% inhibitory concentration (IC50) was determined as 24 nM.
The result for `Cc1cccc2ccnc(N(C(=O)c3ccc(Nc4nccc(N5CCOCC5=O)n4)cc3F)[C@@H]3CCCNC3)c12` [Example 937, (R)-2-fluoro-N-(8-methylisoquinolin-1-yl)-4-(4-(3-oxomorpholino)pyrimidin-2-ylamino)-N-(piperidin-3-yl)benzamide] reads 50 nM.
On to `Cc1cccc2ccnc(N(C(=O)c3ccc(Nc4nccc(N5CCNC(=O)C5)n4)cc3F)[C@@H]3CCCNC3)c12` [Example 938, (R)-2-fluoro-N-(8-methylisoquinolin-1-yl)-4-((4-(3-oxopiperazin-1-yl)pyrimidin-2-yl)amino)-N-(piperidin-3-yl)benzamide], for which the half-inhibitory concentration (IC50) turned out to be 290 nM.
The result for `Cc1cccc2ccnc(N(C(=O)c3ccc(Nc4nccc(N5[C@H](C)COC[C@H]5C)n4)cc3F)[C@@H]3CCCNC3)c12` [Example 939, 4-((4-((3R,5R)-3,5-dimethylmorpholino)pyrimidin-2-yl)amino)-2-fluoro-N-(8-methylisoquinolin-1-yl)-N—((R)-piperidin-3-yl)benzamide] reads 69 nM.
Turning to `Cc1cccc2ccnc(N(C(=O)c3ccc(Nc4nccc(N5[C@H](C)COC[C@@H]5C)n4)cc3F)[C@@H]3CCCNC3)c12` [Example 940, 4-((4-((3R,5S)-3,5-dimethylmorpholino)pyrimidin-2-yl)amino)-2-fluoro-N-(8-methylisoquinolin-1-yl)-N—((R)-piperidin-3-yl)benzamide], the 50% inhibitory concentration (IC50) came to 34 nM.
The result for `Cc1cccc2ccnc(N(C(=O)c3ccc(Nc4nccc(N5CCOC[C@H]5C(C)C)n4)cc3F)[C@@H]3CCCNC3)c12` [Example 941, 2-fluoro-4-((4-((R)-3-isopropylmorpholino)pyrimidin-2-yl)amino)-N-(8-methylisoquinolin-1-yl)-N—((R)-piperidin-3-yl)benzamide] reads 39 nM.
For `Cc1cccc2ccnc(N(C(=O)c3ccc(Nc4nccc(N5CCOC[C@H]5CO)n4)cc3F)[C@@H]3CCCNC3)c12` [Example 942, 2-fluoro-4-((4-((R)-3-(hydroxymethyl)morpholino)pyrimidin-2-yl)amino)-N-(8-methylisoquinolin-1-yl)-N—((R)-piperidin-3-yl)benzamide], the IC50 was found to be 88 nM.
The same measure for `COC[C@@H]1COCCN1c1ccnc(Nc2ccc(C(=O)N(c3nccc4cccc(C)c34)[C@@H]3CCCNC3)c(F)c2)n1` [Example 943, 2-fluoro-4-(4-((R)-3-(methoxymethyl)morpholino)pyrimidin-2-ylamino)-N-(8-methylisoquinolin-1-yl)-N—((R)-piperidin-3-yl)benzamide]: 80 nM; for `Cc1cccc2ccnc(N(C(=O)c3ccc(Nc4nccc(N5CCCOCC5)n4)cc3F)[C@@H]3CCCNC3)c12` [Example 944, (R)-4-(4-(1,4-oxazepan-4-yl)pyrimidin-2-ylamino)-2-fluoro-N-(8-methylisoquinolin-1-yl)-N-(piperidin-3-yl)benzamide]: 46 nM.
For the compound `COC(=O)[C@@H]1COCCN1c1ccnc(Nc2ccc(C(=O)N(c3nccc4cccc(C)c34)[C@@H]3CCCNC3)c(F)c2)n1` [Example 945, methyl(S)-4-(2-((3-fluoro-4-((8-methylisoquinolin-1-yl)((R)-piperidin-3-yl)carbamoyl)phenyl)amino)pyrimidin-4-yl)morpholine-3-carboxylate], the IC50 amounted to 47 nM.
The same measure for `Cc1cccc2ccnc(N(C(=O)c3ccc(Nc4nccc(N[C@H]5CC[C@H](O)CC5)n4)cc3F)[C@@H]3CCCNC3)c12` [Example 946, 2-fluoro-4-(4-((1r,4r)-4-hydroxycyclohexylamino)pyrimidin-2-ylamino)-N-(8-methylisoquinolin-1-yl)-N—((R)-piperidin-3-yl)benzamide]: 130 nM; for `Cc1cccc2ccnc(N(C(=O)c3ccc(Nc4nccc(N5CCC(=O)C5)n4)cc3F)[C@@H]3CCCNC3)c12` [Example 947, (R)-2-fluoro-N-(8-methylisoquinolin-1-yl)-4-((4-(3-oxopyrrolidin-1-yl)pyrimidin-2-yl)amino)-N-(piperidin-3-yl)benzamide]: 35 nM; for `Cc1cccc2ccnc(N(C(=O)c3ccc(Nc4nccc(N(C)C5CCCC5)n4)cc3F)[C@@H]3CCCNC3)c12` [Example 948, 4-({4-[cyclopentyl(methyl)amino]pyrimidin-2-yl}amino)-2-fluoro-N-(8-methylisoquinolin-1-yl)-N-[(3R)-piperidin-3-yl]benzamide]: 150 nM.
Consider `Cc1cccc2ccnc(N(C(=O)c3ccc(Nc4nccc(N(C)CCC#N)n4)cc3F)[C@@H]3CCCNC3)c12` [Example 949, (R)-4-((4-((2-cyanoethyl)(methyl)amino)pyrimidin-2-yl)amino)-2-fluoro-N-(8-methylisoquinolin-1-yl)-N-(piperidin-3-yl)benzamide], for which the IC50 came to 250 nM.
The result for `Cc1cccc2ccnc(N(C(=O)c3ccc(Nc4nccc(NCC#N)n4)cc3F)[C@@H]3CCCNC3)c12` [Example 950, (R)-4-((4-((cyanomethyl)amino)pyrimidin-2-yl)amino)-2-fluoro-N-(8-methylisoquinolin-1-yl)-N-(piperidin-3-yl)benzamide] reads 51 nM.
Turning to `COc1ccnc(Nc2ccc(C(=O)N(c3nccc4cccc(C)c34)[C@@H]3CCCNC3)c(F)c2)n1` [Example 951, 2-fluoro-4-[(4-methoxypyrimidin-2-yl)amino]-N-(8-methylisoquinolin-1-yl)-N-[(3R)-piperidin-3-yl]benzamide], the IC50 was 100 nM.
The same measure for `CCC(C)N(C)c1ccnc(Nc2ccc(C(=O)N(c3nccc4cccc(C)c34)[C@@H]3CCCNC3)c(F)c2)n1` (stereo partly drawn) [Example 952, 4-((4-(sec-butyl(methyl)amino)pyrimidin-2-yl)amino)-2-fluoro-N-(8-methylisoquinolin-1-yl)-N—((R)-piperidin-3-yl)benzamide]: 130 nM.
For the compound `Cc1cccc2ccnc(N(C(=O)c3ccc(Nc4nccnn4)cc3F)[C@@H]3CCCNC3)c12` [Example 953, (R)-4-(1,2,4-triazin-3-ylamino)-2-fluoro-N-(8-methylisoquinolin-1-yl)-N-(piperidin-3-yl)benzamide], the concentration for half-maximal inhibition (IC50) was determined as 100 nM.
The result for `Cc1cccc2ccnc(N(C(=O)c3ccc(Nc4nccc(NC5CCOCC5)n4)cc3F)[C@@H]3CCCNC3)c12` [Example 954, (R)-2-fluoro-N-(8-methylisoquinolin-1-yl)-N-(piperidin-3-yl)-4-((4-((tetrahydro-2H-pyran-4-yl)amino)pyrimidin-2-yl)amino)benzamide] reads 31 nM; that for `Cc1cccc2ccnc(N(C(=O)c3ccc(Nc4nccc(N5CCOCC5C#N)n4)cc3F)[C@@H]3CCCNC3)c12` (stereo partly drawn) [Example 955, 4-((4-(3-cyanomorpholino)pyrimidin-2-yl)amino)-2-fluoro-N-(8-methylisoquinolin-1-yl)-N—((R)-piperidin-3-yl)benzamide], 26 nM.
As for `Cc1cccc2ccnc(N(C(=O)c3ccc(Nc4nccc(N5CCOCC5CN(C)C)n4)cc3F)[C@@H]3CCCNC3)c12` (stereo partly drawn) [Example 956, 4-(4-(3-((dimethylamino)methyl)morpholino)pyrimidin-2-ylamino)-2-fluoro-N-(8-methylisoquinolin-1-yl)-N—((R)-piperidin-3-yl)benzamide], the 50% inhibitory concentration (IC50) came to 360 nM.
In the case of `Cc1cccc2ccnc(N(C(=O)c3ccc(Nc4nccc(N(C)C5CCOCC5)n4)cc3F)[C@@H]3CCCNC3)c12` [Example 957, (R)-2-fluoro-4-(4-(methyl(tetrahydro-2H-pyran-4-yl)amino)pyrimidin-2-ylamino)-N-(8-methylisoquinolin-1-yl)-N-(piperidin-3-yl)benzamide], the IC50 amounted to 23 nM.
Regarding `Cc1cccc2ccnc(N(C(=O)c3ccc(Nc4nccc(N5CCOCC5c5cccnc5)n4)cc3F)[C@@H]3CCCNC3)c12` (stereo partly drawn) [Example 958, 2-fluoro-N-(8-methylisoquinolin-1-yl)-N—((R)-piperidin-3-yl)-4-((4-(3-(pyridin-3-yl)morpholino)pyrimidin-2-yl)amino)benzamide], the IC50 is 47 nM.
As to `Cc1cccc2ccnc(N(C(=O)c3ccc(Nc4nccc(N5CCCC[C@H]5C)n4)cc3F)[C@@H]3CCCNC3)c12` [Example 959, 2-fluoro-N-(8-methylisoquinolin-1-yl)-4-({4-[(2R)-2-methylpiperidin-1-yl]pyrimidin-2-yl}amino)-N-[(3R)-piperidin-3-yl]benzamide], the IC50 came to 190 nM.
The same measure for `Cc1cccc2ccnc(N(C(=O)c3ccc(Nc4nccc(N5CCCC[C@H]5CO)n4)cc3F)[C@@H]3CCCNC3)c12` [Example 960, 2-fluoro-4-((4-((S)-2-(hydroxymethyl)piperidin-1-yl)pyrimidin-2-yl)amino)-N-(8-methylisoquinolin-1-yl)-N—((R)-piperidin-3-yl)benzamide]: 110 nM.
